Experiments:
[1] = target: T1, cloned human NE transporter (hNET) (Homo sapiens, UniProt P23975); experiment: NE transporter binding assay, [3H]nisoxetine
T1 construct: expressed in transfected cells; host or cells: CHO cells
Description: Protocols. For the NE transporter binding assay, [^3H]nisoxetine (1.0 nM) was incubated with various concentrations of test compounds for 2 hours at 4° C. with membranes prepared from Chinese hamster ovary cells (CHO) cells heterologously expressing the cloned human NE transporter (hNET). Bound radioactivity was determined by scintillation spectroscopy.

[2] = target: T2, cloned human 5HT2A receptor (Homo sapiens, UniProt P28223); experiment: 5HT2A receptor binding assay, [3H]ketanserin; details: HEK-293 membranes
T2 construct: expressed in transfected cells; host or cells: HEK-293 cells
T2 sequence (P28223 whole entry): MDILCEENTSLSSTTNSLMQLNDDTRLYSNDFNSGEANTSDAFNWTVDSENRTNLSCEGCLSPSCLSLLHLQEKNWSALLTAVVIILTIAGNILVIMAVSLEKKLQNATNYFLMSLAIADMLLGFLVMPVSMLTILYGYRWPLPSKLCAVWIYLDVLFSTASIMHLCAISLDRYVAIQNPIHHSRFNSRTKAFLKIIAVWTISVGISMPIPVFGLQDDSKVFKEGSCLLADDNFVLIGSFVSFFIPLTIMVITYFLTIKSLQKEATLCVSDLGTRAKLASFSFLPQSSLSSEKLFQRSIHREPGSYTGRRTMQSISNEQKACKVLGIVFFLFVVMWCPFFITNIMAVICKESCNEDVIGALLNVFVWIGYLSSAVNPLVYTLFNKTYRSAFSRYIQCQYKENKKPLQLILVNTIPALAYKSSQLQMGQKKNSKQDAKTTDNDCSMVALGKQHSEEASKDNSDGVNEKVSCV
Description: For the 5HT2A receptor binding assay, [^3H]ketanserin (0.5 nM) was incubated for 60 min at 22° C. with membranes prepared from HEK-293 cells heterologously expressing the cloned human 5-HT2A receptor according to the method of Bonhaus et al., 1995, Brit. J. Pharmacol. 115:622-628. Various concentrations of test compound were added and bound radioactivity was determined by scintillation counting. Non-specific binding was determined in the presence of 1.0 μM unlabeled ketanserin. The Ki value for the test compound was determined using standard methods.

[3] = target: T3, cloned human 5HT2B receptor (Homo sapiens, UniProt P41595); experiment: 5HT2B receptor binding assay, [125I]DOI; details: CHO membranes
T3 construct: expressed in transfected cells; host or cells: CHO cells
T3 sequence (P41595 whole entry): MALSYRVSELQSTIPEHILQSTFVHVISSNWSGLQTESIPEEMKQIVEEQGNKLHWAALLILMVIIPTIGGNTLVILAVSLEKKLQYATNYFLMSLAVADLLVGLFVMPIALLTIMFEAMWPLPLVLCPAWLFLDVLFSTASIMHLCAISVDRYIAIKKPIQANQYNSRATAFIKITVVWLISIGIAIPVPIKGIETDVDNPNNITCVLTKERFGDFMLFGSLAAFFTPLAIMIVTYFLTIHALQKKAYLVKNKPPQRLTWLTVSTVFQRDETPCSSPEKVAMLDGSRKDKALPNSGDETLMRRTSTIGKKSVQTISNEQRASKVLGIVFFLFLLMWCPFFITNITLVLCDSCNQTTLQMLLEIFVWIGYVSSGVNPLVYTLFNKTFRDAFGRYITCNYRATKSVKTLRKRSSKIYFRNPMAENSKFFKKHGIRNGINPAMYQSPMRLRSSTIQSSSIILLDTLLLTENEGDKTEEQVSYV
Description: For the 5HT2B receptor binding assay, [^125I](±)[…] (DOI) (0.2 nM) was incubated for 15 min at 37° C. with membranes prepared from Chinese hamster ovary cells heterologously expressing the cloned human 5HT2B receptor according to the method of Choi et al., 1994, FEBS Lett 352:393-399. Various concentrations of test compound were added and bound radioactivity was determined by scintillation counting. Non-specific binding was determined in the presence of 1.0 μM unlabeled DOI. The Ki value for the test compound was determined using standard methods.

[4] = target: T4, cloned human 5HT2C receptor (Homo sapiens, UniProt P28335); experiment: 5HT2C receptor binding assay, [3H]mesulergine; details: CHO membranes
T4 construct: expressed in transfected cells; host or cells: CHO cells
T4 sequence (P28335 33-458): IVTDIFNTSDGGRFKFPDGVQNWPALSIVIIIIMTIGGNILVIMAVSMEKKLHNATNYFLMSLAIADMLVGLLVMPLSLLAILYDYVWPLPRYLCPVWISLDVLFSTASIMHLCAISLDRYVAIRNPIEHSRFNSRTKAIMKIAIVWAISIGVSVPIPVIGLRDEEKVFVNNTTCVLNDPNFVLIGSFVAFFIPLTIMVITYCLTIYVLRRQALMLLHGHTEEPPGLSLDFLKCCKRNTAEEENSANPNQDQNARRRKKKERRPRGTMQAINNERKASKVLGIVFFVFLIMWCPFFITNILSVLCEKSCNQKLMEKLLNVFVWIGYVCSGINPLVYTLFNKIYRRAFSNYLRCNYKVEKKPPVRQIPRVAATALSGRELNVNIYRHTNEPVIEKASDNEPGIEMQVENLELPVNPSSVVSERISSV
Description: For the 5HT2C receptor binding assay, [^3H]mesulergine (1.0 nM) was incubated for 60 min at 37° C. with membranes prepared from Chinese hamster ovary cells heterologously expressing the cloned human 5-HT2C receptor according to the method of Stam et al., 1994, Eur. J. Pharmacol. 269:339-348. Various concentrations of test compound were added and bound radioactivity was determined by scintillation counting. Non-specific binding was determined in the presence of 10 μM RS102221. The Ki value for the test compound was determined using standard methods.

human recombinant CYP2D6 = target: T5, human recombinant CYP2D6 (Homo sapiens, UniProt P10635); experiment: CYP2D6 inhibition, MAMC substrate; type: in vitro ADME
T5 construct: purchased BD Bioscience
T5 sequence (P10635 whole entry): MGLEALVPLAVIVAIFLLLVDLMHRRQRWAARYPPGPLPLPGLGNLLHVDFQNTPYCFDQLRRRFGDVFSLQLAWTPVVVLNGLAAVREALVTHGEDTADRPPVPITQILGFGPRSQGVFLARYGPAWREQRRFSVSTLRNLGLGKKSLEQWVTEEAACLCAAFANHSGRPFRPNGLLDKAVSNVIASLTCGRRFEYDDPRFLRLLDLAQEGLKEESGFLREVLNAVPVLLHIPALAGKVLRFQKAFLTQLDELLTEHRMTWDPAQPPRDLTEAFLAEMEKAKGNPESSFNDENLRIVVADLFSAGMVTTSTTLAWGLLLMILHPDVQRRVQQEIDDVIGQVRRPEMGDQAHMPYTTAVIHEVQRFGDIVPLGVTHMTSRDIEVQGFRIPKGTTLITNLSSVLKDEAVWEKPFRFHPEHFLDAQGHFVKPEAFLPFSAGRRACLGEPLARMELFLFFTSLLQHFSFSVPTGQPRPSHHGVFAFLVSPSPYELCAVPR
Description: Protocol. […] The source of the enzyme was microsomes containing human recombinant CYP2D6 obtained from BD Bioscience. Conversion of MAMC to 7-hydroxy-4-(aminomethyl)coumarin was measured using a PerkinElmer Fusion with a 390 nm excitation filter and a 460 nm emission filter.

L5 SNL rats = experiment: L5 Single Nerve Ligation model of neuropathic pain, tactile allodynia (von Frey); type: in vivo, rat
Description: Protocol. The antiallodynic activity of (−)-beloxepin was tested in vivo using the L5—Single Nerve Ligation model of non-nociceptive neuropathic pain as described in LaBuda & Little, 2005, J. Neurosci. Methods 144:175-181. The test animals were placed in a Plexiglas chamber (10 cm×20 cm×25 cm) and habituated for 15 minutes. The chamber was positioned on top of a mesh screen so that von Frey monofilaments could be presented to the plantar surface of both hindpaws. Measurement of tactile sensitivity for each hind paw were obtained using the up/down method (Dixon, 1980, Annu. Rev. Pharmacol. Toxicol. 20:441-462) with seven Frey monofilaments (0.4, 1, 2, 4, 6, 8 and 15 grams). Each trial started with a von Frey force of 2 grams delivered to the right hind paw for approximately 1-2 seconds and then the left hind paw. If there was no withdrawal response, the next higher force was delivered. If there was a response, the next lower force was delivered. This procedure was performed until no response was made at the highest force (15 grams) or until four stimuli were administered following the initial response. The 50% paw withdrawal threshold for each paw was calculated using the following formula: [Xth]log=[vFr]log+ky, where [vFr] is the force of the last von Frey used, k=0.2249 which is the average interval (in log units) between the von Frey monofilaments, and y is a value that depends upon the pattern of withdrawal responses (Dixon, 1980, supra). […] Testing for tactile sensitivity was performed twice and the mean 50% withdrawal value assigned as the tactile sensitivity for the right and left paws for each animal.
Results. The antiallodynic effects produced by (−)-beloxepin (30 mg/kg IP) and (+)-beloxepin (30 mg/kg IP) in L5 SNL rats 8 days post surgery are illustrated in FIG. 1. In this experiment, at 8 days post surgery, rats were treated with vehicle or beloxepin enantiomers (30 mg/kg IP) and tested for tactile allodynia at 30 min post treatment. […] No side effects were observed following treatment with either enantiomer.
The antiallodynic effects produced by (−)-beloxepin (30 mg/kg IP) in L5 SNL rats 14 days post surgery are illustrated in FIG. 2. In this experiment, at 14 days post surgery, rats were treated with vehicle or (−)-beloxepin and tested for tactile allodynia at 30, 60, 120 and 240 min post treatment. Vehicle treated rats were tested at 30 min post treatment.
Protocol. A time course experiment was performed with (−)-beloxepin (60 mg/kg PO) in L5 SNL rats at 7 days post-surgery. Rats were tested at 30, 60, 120, and 240 minutes post-drug.
Protocol. A time course experiment was also performed with (+)-beloxepin (60 mg/kg PO) in L5 SNL rats at 14 days post-surgery. Rats were tested at 30, 60, 120, and 240 minutes post-drug.

[5] = tested on: rat hindpaw incision model; experiment: rat hindpaw incisional pain model, tactile allodynia; type: in vivo; details: 30 mg/kg IP, 24 hours post-surgery
Description: Protocol. A time course experiment was also performed with (−)-beloxepin in the hindpaw incision model. At 24 hours post-surgery, rats received vehicle or (−)-beloxepin (30 mg/kg IP). Rats were tested for tactile allodynia at 30, 60, 120 and 240 minutes after administration of (−)-beloxepin.
Protocol. Another time course experiment was performed with (+)-beloxepin in the hindpaw incision model. At 24 hours post-surgery, rats received vehicle or (+)-beloxepin (30 mg/kg IP). Rats were tested for tactile allodynia at 30, 60, 120 and 240 minutes after administration of (+)-beloxepin.

[6] = tested on: rat 50° C. hot plate model; experiment: rat 50° C. hot plate assay; type: in vivo; details: for level of antinociception, positive control: 3 mg/kg SC, 30 min
Description: Protocol. Rats were treated with vehicle, 30 mg/kg IP of (−)-beloxepin, or 30 mg/kg IP of (+)-beloxepin and then were placed on a hot plate (50° C.) 30, 60, or 120 minutes after administration of the vehicle or beloxepin enantiomer. Rats treated with 3 mg/kg SC of morphine and tested 30 min post-treatment were used as a positive control in these experiments.

[7] = tested on: pain intensity in study completers; details: cited from earlier work
[8] = 30 mg/kg IP, 8 days post surgery, 30 min post treatment

T1 sequence (P23975 whole entry): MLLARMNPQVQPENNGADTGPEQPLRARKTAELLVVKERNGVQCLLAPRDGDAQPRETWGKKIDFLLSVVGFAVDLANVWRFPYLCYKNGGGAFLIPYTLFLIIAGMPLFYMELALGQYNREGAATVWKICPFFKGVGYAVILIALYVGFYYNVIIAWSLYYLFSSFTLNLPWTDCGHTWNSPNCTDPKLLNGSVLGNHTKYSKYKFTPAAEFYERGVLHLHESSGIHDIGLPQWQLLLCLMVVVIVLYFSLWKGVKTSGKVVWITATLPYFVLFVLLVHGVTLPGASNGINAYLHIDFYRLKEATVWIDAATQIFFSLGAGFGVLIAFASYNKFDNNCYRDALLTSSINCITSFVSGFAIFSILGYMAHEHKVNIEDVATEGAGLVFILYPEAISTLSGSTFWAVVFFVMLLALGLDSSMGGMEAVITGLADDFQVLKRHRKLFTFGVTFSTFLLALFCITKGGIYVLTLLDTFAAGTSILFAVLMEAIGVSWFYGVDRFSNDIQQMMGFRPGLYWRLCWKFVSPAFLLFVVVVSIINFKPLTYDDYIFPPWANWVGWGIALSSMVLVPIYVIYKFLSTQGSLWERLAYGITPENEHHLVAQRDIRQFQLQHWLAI

Cc1cccc2c1Oc1ccccc1C1(O)CCN(C)CC21 (single isomer, unassigned; (-)) [(−)-beloxepin]
higher affinity at the NET than the (+) enantiomer ([1]; (−) vs (+) enantiomer): approximately 8 fold | Ki ([1]; membranes of CHO cells expressing hNET, read-out: NET Ki): 0.39 µM | Ki [2]: > 10 µM | Ki [3]: > 10 µM | Ki [4]: > 10 µM | IC50 (human recombinant CYP2D6): 4.37 µM | antiallodynia, % of the threshold of vehicle-treated L5 SNL rats (L5 SNL rats; [8]): 444% | antiallodynic effect (L5 SNL rats; [8]): significant antiallodynia | maximal efficacy, % of the threshold of vehicle-treated rats (L5 SNL rats; 30 mg/kg IP, 14 days post surgery): 635% | antiallodynic effect (L5 SNL rats; 30 mg/kg IP, 14 days post surgery, tested 30, 60, 120, 240 min): significant antiallodynic effects at the 30 and 60 min time points | antiallodynic effect (L5 SNL rats; 60 mg/kg PO, 7 days post-surgery, tested 30, 60, 120, 240 min): significant antiallodynic effects at the 60 and 120 minute time points | hindpaw withdrawal threshold, % of the threshold value for vehicle treated rats ([5]; 30 minute time point): 426% | maximum hindpaw withdrawal threshold ([5]; 30 minute time point): ~19 grams | antiallodynic effect ([5]; tested 30, 60, 120, 240 min): significant antiallodynic effect at the 30 and 120 minute time point | antinociceptive activity ([6]; 30 mg/kg IP, 30, 60, 120 min): robust antinociceptive activity at 30, 60, and 120 minutes after treatment | peak antinociception ([6]; 30 mg/kg IP, 30 min post-treatment): 79±10 % MPE

CNCCCC12CCC(c3ccccc31)c1ccccc12 [maprotiline]
reduction in pain intensity [7]: 45%

CN1CC[C@]23c4c5ccc(O)c4O[C@H]2[C@@H](O)C=C[C@H]3[C@H]1C5 [morphine, reference compound]
level of antinociception, positive control ([6]; 'in these experiments'): 61±7 % MPE | level of antinociception, positive control ([6]; (+)-beloxepin experiment (FIG. 8)): 85±7 % MPE | level of antinociception, positive control ([6]; (−)-beloxepin experiment (FIG. 7)): 65±11 % MPE

Fc1ccc([C@@H]2CCNC[C@H]2COc2ccc3c(c2)OCO3)cc1 [paroxetine]
reduction in pain intensity [7]: 26%

From US20090233957A1, “(-)-BELOXEPIN AND METHODS FOR ITS SYNTHESIS AND USE” (priority 2008, published 2009)
